# Measurements taken from patent US20100160445A1, “Synergistic Mixtures of OPP and DGH” (priority 2002, published 2010).
# Where a name gives a salt, the structure may show the parent alone.
# System: mildew
# Assay: Mildew resistance testing of caulking adhesives, ASTM D3273
# Assay type: cell-based
# Method: Testing was also completed on Franklin International Caulking Adhesives. The testing that was conducted was done in accordance with test ASTM D3273 as set forth in the Annual Book of ASTM Standards, Vol 06.01 which is hereby incorporated by reference. This is a standard test method for mildew known to those skilled in the art. When performing this test OPP was not tested by itself as it is known in the art of coatings that significant amounts of OPP are required, typically in the range of 2,000 to 10,000 ppm which is supported by EPA Registration No.'s 39967-11-67869 and EPA Registration No. 464-78-67869. An example of the significant amounts of OPP needed can also be seen in the OPP results in the paint testing shown above.
# • 10=No Mildew Growth, Excellent Mildew Resistance • 7-9=Trace Mildew Growth, Very Good Mildew Resistance • 6-5=Moderate Mildew Growth, Poor Mildew Resistance • 4-0=Heavy Mildew Growth, Failed
# [1] = Titebond Professional Drywall Adhesive, 500 ppm
# [2] = Titebond Professional Drywall Adhesive, 1000 ppm
# [3] = Titebond Professional Drywall Adhesive, 1500 ppm
# [4] = Titebond Professional Drywall Adhesive, 2000 ppm
# [5] = Titebond Professional Tub Surround Adhesive, 500 ppm
# [6] = Titebond Professional Tub Surround Adhesive, 1000 ppm
# [7] = Titebond Professional Tub Surround Adhesive, 1500 ppm
# [8] = Titebond Professional Tub Surround Adhesive, 2000 ppm
# [9] = Titebond Solvent Free Construction Adhesive, 500 ppm
# [10] = Titebond Solvent Free Construction Adhesive, 1000 ppm
# [11] = Titebond Solvent Free Construction Adhesive, 1500 ppm
# [12] = Titebond Solvent Free Construction Adhesive, 2000 ppm
# [13] = Titebond Solvent Free Fast Grab FRP Adhesive, 500 ppm
# [14] = Titebond Solvent Free Fast Grab FRP Adhesive, 1000 ppm
# [15] = Titebond Solvent Free Fast Grab FRP Adhesive, 1500 ppm
# [16] = Titebond Solvent Free Fast Grab FRP Adhesive, 2000 ppm
# [17] = Titebond Solvent Free Subfloor Adhesive, 500 ppm
# [18] = Titebond Solvent Free Subfloor Adhesive, 1000 ppm
# [19] = Titebond Solvent Free Subfloor Adhesive, 1500 ppm
# [20] = Titebond Solvent Free Subfloor Adhesive, 2000 ppm
smiles,measurement,setting,value
"CCCCCCCCCCCCNC(=N)N [DGH, Dodecylguanidine Hydrochloride]",Mildew Results 7 Days,[1],10
same,Mildew Results 14 Days,[1],10
same,Mildew Results 21 Days,[1],10
same,Mildew Results 28 Days,[1],10
same,Mildew Results 7 Days,[2],10
same,Mildew Results 14 Days,[2],10
same,Mildew Results 21 Days,[2],10
same,Mildew Results 28 Days,[2],10
same,Mildew Results 7 Days,[3],10
same,Mildew Results 14 Days,[3],10
same,Mildew Results 21 Days,[3],10
same,Mildew Results 28 Days,[3],10
same,Mildew Results 7 Days,[4],10
same,Mildew Results 14 Days,[4],10
same,Mildew Results 21 Days,[4],10
same,Mildew Results 28 Days,[4],10
same,Mildew Results 7 Days,[5],10
same,Mildew Results 14 Days,[5],10
same,Mildew Results 21 Days,[5],10
same,Mildew Results 28 Days,[5],10
same,Mildew Results 7 Days,[6],10
same,Mildew Results 14 Days,[6],10
same,Mildew Results 21 Days,[6],10
same,Mildew Results 28 Days,[6],10
same,Mildew Results 7 Days,[7],10
same,Mildew Results 14 Days,[7],10
same,Mildew Results 21 Days,[7],10
same,Mildew Results 28 Days,[7],10
same,Mildew Results 7 Days,[8],10
same,Mildew Results 14 Days,[8],10
same,Mildew Results 21 Days,[8],10
same,Mildew Results 28 Days,[8],10
same,Mildew Results 7 Days,[9],10
same,Mildew Results 14 Days,[9],10
same,Mildew Results 21 Days,[9],10
same,Mildew Results 28 Days,[9],10
same,Mildew Results 7 Days,[10],10
same,Mildew Results 14 Days,[10],10
same,Mildew Results 21 Days,[10],10
same,Mildew Results 28 Days,[10],10
same,Mildew Results 7 Days,[11],10
same,Mildew Results 14 Days,[11],10
same,Mildew Results 21 Days,[11],10
same,Mildew Results 28 Days,[11],10
same,Mildew Results 7 Days,[12],10
same,Mildew Results 14 Days,[12],10
same,Mildew Results 21 Days,[12],10
same,Mildew Results 28 Days,[12],10
same,Mildew Results 7 Days,[13],10
same,Mildew Results 14 Days,[13],10
same,Mildew Results 21 Days,[13],0
same,Mildew Results 28 Days,[13],0
same,Mildew Results 7 Days,[14],10
same,Mildew Results 14 Days,[14],10
same,Mildew Results 21 Days,[14],0
same,Mildew Results 28 Days,[14],0
same,Mildew Results 7 Days,[15],10
same,Mildew Results 14 Days,[15],10
same,Mildew Results 21 Days,[15],10
same,Mildew Results 28 Days,[15],9
same,Mildew Results 7 Days,[16],10
same,Mildew Results 14 Days,[16],10
same,Mildew Results 21 Days,[16],10
same,Mildew Results 28 Days,[16],10
same,Mildew Results 7 Days,[17],7
same,Mildew Results 14 Days,[17],7
same,Mildew Results 21 Days,[17],0
same,Mildew Results 28 Days,[17],0
same,Mildew Results 7 Days,[18],7
same,Mildew Results 14 Days,[18],7
same,Mildew Results 21 Days,[18],0
same,Mildew Results 28 Days,[18],0
same,Mildew Results 7 Days,[19],7
same,Mildew Results 14 Days,[19],7
same,Mildew Results 21 Days,[19],0
same,Mildew Results 28 Days,[19],0
same,Mildew Results 7 Days,[20],10
same,Mildew Results 14 Days,[20],10
same,Mildew Results 21 Days,[20],10
same,Mildew Results 28 Days,[20],10
